Data reported in ChEMBL document CHEMBL1201862, “PubChem BioAssay data set” (2004).
Active and inactive are the calls of the source.

Experiments:
INS1 = assay: beta cell apoptosis inhibitors, cytokine rescue, dose response, luminescence, retest (AID 449756); type: functional, cell-based; details: Rattus norvegicus;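 also: cell death triggered by IL-1 beta plus TNF-alpha plus IFN-gamma mixture; protective hits raise ATP signal compared with cytokine alone wells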
[1] = target: T1, Sentrin-specific protease 8 (Homo sapiens, UniProt Q96LD8); type: functional;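 also: luminescence read-out of SENP8 inhibition, dose-response confirmation following an ultra-high-throughput screen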
T1 sequence (Q96LD8 whole entry): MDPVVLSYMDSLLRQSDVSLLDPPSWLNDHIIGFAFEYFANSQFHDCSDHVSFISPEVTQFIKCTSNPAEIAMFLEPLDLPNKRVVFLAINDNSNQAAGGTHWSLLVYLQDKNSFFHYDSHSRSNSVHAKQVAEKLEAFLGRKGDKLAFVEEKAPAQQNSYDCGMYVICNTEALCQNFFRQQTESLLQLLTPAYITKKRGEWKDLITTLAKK

Nonstructural protein 1 = Nonstructural protein 1 (Influenza A virus, UniProt Q194T2); type: functional, Influenza A virus (A/California/07/2009(H1N1))
Chain of Nonstructural protein 1 (Q194T2 whole entry): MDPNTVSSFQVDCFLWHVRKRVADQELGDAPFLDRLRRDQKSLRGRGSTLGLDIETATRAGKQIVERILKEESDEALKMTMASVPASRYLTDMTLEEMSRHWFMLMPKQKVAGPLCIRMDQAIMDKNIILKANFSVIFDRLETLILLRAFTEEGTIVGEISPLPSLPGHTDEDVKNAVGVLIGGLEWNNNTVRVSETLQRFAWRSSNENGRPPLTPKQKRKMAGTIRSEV

Caspase-3 = target: T2, Caspase-3 (Homo sapiens, UniProt P42574); type: functional;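 also: Dose-response selectivity test against caspase-3 for candidate inhibitors of sentrin-specific proteases (SENPs)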
T2 sequence (P42574 whole entry): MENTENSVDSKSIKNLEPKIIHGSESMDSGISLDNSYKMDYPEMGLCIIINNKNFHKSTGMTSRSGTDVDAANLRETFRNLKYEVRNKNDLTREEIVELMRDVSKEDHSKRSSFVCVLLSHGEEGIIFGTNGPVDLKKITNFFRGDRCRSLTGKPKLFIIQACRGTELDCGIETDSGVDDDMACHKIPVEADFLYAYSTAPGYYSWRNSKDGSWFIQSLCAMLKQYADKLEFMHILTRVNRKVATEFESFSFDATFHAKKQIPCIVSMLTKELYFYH

[2] = target: T3, Sentrin-specific protease 6 (Homo sapiens, UniProt Q9GZR1); type: functional;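 also: Luminescence-based dose-response confirmatory assay of SENP6 inhibition, following up an ultra-high-throughput screen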
T3 sequence (Q9GZR1 whole entry): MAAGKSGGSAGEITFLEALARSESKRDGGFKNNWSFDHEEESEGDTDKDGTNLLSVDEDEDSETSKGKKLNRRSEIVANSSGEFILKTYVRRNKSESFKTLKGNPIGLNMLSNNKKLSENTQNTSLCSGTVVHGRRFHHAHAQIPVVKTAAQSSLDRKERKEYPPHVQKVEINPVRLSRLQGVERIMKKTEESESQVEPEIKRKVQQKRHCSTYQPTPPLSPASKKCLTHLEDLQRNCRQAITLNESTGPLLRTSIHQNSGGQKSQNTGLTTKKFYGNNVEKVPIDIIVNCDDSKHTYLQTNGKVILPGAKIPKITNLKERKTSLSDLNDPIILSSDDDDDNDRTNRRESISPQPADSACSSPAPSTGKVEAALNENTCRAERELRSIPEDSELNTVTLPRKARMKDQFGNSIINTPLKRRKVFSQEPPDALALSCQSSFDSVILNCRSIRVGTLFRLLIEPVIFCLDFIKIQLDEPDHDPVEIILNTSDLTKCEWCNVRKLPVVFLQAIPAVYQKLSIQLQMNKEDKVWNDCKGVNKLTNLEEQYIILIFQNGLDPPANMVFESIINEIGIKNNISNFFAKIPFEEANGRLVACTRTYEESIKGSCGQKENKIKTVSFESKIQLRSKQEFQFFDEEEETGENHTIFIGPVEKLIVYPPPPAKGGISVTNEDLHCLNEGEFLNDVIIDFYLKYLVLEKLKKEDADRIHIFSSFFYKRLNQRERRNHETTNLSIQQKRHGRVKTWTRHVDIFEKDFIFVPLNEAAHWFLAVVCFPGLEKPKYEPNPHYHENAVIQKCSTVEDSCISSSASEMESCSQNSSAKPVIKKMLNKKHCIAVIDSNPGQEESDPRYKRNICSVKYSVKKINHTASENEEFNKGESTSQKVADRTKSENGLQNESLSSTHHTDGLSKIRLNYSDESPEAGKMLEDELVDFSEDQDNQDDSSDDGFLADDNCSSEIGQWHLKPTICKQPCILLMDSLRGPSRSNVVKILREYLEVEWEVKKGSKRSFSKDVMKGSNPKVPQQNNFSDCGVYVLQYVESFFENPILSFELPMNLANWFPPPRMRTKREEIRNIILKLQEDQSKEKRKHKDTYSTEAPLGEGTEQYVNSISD

[3] = target: T4, Sentrin-specific protease 7 (Homo sapiens, UniProt Q9BQF6); type: functional;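 also: Luminescence-based dose-response confirmation of ultra-high-throughput screening hits, measuring inhibition of SENP7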
T4 sequence (Q9BQF6 whole entry): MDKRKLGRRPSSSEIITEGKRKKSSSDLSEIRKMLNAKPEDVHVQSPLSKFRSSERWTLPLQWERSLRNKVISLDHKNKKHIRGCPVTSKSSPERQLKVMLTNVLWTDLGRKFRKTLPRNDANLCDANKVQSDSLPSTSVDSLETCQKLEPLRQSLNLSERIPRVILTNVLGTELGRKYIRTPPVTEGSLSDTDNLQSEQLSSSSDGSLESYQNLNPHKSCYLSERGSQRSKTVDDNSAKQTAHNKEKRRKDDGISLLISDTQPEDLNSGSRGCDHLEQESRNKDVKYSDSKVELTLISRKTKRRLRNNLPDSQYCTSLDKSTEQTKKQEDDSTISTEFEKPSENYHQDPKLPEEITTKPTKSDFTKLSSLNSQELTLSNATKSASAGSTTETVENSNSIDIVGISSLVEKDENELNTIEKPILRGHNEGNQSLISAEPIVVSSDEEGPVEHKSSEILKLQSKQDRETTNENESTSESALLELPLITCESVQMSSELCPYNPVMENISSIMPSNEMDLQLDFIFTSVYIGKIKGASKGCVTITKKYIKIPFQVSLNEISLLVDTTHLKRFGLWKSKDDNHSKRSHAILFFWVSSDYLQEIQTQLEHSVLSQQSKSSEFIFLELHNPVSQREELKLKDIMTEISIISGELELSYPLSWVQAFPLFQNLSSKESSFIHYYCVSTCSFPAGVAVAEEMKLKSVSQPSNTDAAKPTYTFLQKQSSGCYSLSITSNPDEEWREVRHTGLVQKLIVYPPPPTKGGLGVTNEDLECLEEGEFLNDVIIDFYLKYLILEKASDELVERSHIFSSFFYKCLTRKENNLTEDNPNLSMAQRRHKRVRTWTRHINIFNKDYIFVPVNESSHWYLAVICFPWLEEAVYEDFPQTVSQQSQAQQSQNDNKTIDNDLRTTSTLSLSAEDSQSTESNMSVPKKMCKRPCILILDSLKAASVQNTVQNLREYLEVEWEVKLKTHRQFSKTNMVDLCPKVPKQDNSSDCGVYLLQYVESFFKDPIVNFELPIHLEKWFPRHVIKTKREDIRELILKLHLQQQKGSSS

Paired box protein Pax-8 = Paired box protein Pax-8 (Homo sapiens, UniProt Q06710); assay: inhibitors of PAX8-driven TPO luciferase reporter, dose response, RMG-I cells, cherry-pick (AID 687027); type: functional, cell-based;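 also: luciferase reporter driven by Pax8 target thyroperoxidase promoter measured by SteadyGlo luminescence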
Chain of Paired box protein Pax-8 (Q06710 whole entry): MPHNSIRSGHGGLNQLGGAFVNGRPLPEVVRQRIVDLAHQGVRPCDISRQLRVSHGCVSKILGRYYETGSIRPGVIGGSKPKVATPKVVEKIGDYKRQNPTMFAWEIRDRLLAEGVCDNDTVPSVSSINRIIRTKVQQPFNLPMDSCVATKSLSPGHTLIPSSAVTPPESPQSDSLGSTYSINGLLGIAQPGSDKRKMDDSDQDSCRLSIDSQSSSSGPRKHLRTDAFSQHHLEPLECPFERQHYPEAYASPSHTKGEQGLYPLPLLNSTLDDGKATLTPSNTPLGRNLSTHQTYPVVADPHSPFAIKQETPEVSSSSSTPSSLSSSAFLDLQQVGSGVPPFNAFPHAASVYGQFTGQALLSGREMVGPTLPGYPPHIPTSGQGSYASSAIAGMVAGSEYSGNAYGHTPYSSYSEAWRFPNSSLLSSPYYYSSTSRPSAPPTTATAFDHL

[4] = target: Tyrosyl-DNA phosphodiesterase 2 (Homo sapiens, UniProt O95551); assay: human TDP2 enzyme inhibitors, dose response, biochemical, epi absorbance, IC50 (AID 743297)
Chain of Tyrosyl-DNA phosphodiesterase 2 (O95551 whole entry): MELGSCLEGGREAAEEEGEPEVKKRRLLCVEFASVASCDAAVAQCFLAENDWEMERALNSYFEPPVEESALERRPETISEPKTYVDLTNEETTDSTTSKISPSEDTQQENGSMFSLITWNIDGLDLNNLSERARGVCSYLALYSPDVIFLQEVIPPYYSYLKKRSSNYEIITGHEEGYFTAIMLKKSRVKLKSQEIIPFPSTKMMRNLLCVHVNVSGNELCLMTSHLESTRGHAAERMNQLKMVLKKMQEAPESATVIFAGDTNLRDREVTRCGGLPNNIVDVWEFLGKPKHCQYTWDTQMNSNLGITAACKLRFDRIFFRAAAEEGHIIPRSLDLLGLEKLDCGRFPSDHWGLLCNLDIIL

[5] = target: Serine/threonine-protein phosphatase PP1-alpha catalytic subunit (Homo sapiens, UniProt P62136); assay: PP1 phosphatase inhibitors, dose response, biochemical, fluorescence (AID 2394)
Chain of Serine/threonine-protein phosphatase PP1-alpha catalytic subunit (P62136 whole entry): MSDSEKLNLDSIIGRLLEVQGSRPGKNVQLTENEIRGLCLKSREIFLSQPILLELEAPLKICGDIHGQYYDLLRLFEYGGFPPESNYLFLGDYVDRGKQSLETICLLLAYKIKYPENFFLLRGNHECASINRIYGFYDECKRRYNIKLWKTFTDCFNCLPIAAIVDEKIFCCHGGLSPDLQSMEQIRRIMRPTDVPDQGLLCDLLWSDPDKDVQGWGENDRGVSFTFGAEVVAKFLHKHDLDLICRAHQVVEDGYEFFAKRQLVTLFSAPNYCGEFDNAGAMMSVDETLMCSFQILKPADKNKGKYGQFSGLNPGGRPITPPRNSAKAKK

`COc1cc(OC)c(NC2=CC(=O)C(=O)c3ccccc32)cc1Cl` was tested, and the AC50 (INS1) was 3.57 µM (active), the IC50 [1] was 3.62 µM (active) and the IC50 (Nonstructural protein 1) was > 100 µM (active). For the same molecule, the IC50 (Caspase-3) was 12.2 µM (active), the IC50 [2] was 2.25 µM (active) and the IC50 [3] was 4.56 µM (active). The AC50 (Paired box protein Pax-8) was 3.4 µM (active).

In the case of `COc1cc2c(cc1OC)-c1c(OC)c(OC)cc3c1C(C2)N(C)CC3` (stereo not given), the IC50 [1] is reported as 5.47 µM (active), the IC50 (Caspase-3) is reported as 0.907 µM (active) and the IC50 [2] is reported as 1.86 µM (active). For the same molecule, the IC50 [3] was 4.63 µM (active) and the IC50 [4] was 4.6 µM (active).

`CCc1ccc(S(=O)(=O)/N=C2\C=C(Nc3cccc(C(=O)O)c3)C(=O)c3ccccc32)cc1` was tested, and the IC50 [5] was 22.7 µM (not active) and the IC50 [4] was 2.2 µM (active).

For `CCCCCCCCCCOC(=O)Cn1c(COc2cccc(OC)c2)[n+](C)c2ccccc21`, the AC50 (INS1) was 2.94 µM (active).
